Laboratory results from US10011592B2, “Polycyclic inhibitor of anaplastic lymphoma kinase” (XUANZHU PHARMA CO., LTD., priority 2014, dated 2018).
Like-named read-outs stand apart in the source and are kept apart here.

What was measured:
ALK kinase [1] = molecular target: T1, ALK kinase (Homo sapiens, UniProt Q9UM73); experiment: In vitro ALK kinase-inhibiting activity (SA-XL665/tyrosine kinase antibody, 665 nm/615 nm read); format: biochemical; conditions: Experimental Example 1; 25° C., 30 min enzymatic reaction; read-out: ALK enzyme-inhibiting activity IC50
Experimental: Preparation of ALK Kinase Buffer:
(§1) The resultant mixture was mixed homogeneously, for later usage.
as §1
Preparation of a stock solution of compound at a concentration of 1 mM: a suitable amount of compound (please see the following table for sample weight) was weighed, and dissolved by adding a suitable amount of DMSO. The resultant mixture was mixed homogeneously, for later usage.
Each of the 1 mM stock solutions was diluted with DMSO to a 200 μM solution, which was used as initial solution. Each of said initial solutions was 3-fold diluted with DMSO to prepare a series of solutions of different concentrations, and then the solution of each concentration was diluted with the ALK kinase buffer by 80 folds to prepare a 2.5×test compound solution.
Preparation of Other Reagents:
5×ALK kinase solution, 5×substrate solution, and 5×ATP solution, were prepared by using the ALK kinase buffer, for later usage.
1) 4 μL 2.5× test compound solution and 2 μL 5×ALK kinase solution were added to the corresponding wells in a 384-well plate, respectively, and incubated at 25° C. for 10 min.
2) To the corresponding wells, 2 μL 5× substrate solution and 2 μL 5×ATP solution were further added to start the enzymatic reaction, and incubation was performed at 25° C. for 30 min.
Detection buffer was used to prepare SA-XL665 at a desired concentration, which was then mixed homogeneously with the same volume of tyrosine kinase antibody. To the corresponding wells, 10 μL said antibody solution was added, and the reaction was stopped. Incubation was performed at 25° C. for 1 h.
IC50: Inhibition rate (%)=(maximal value-sample value)/(maximal value-minimal value)×100, wherein Graph prism software was used in curve fitting to get IC50 value.
Maximal value: positive control without addition of compound; minimal value: negative control without addition of enzyme.

NCI-H2228 = experiment: In vitro cell activity, NCI-H2228, CTG detection; format: cell-based; conditions: Homo sapiens, read-out: cell-inhibiting activity IC50, NCI-H2228
Experimental: Cells were digested with pancreatin. After centrifugation at 1000 rpm for 4 min, the supernatant was removed. […] The cell suspension (100 μL) was seeded to a 96-well plate to obtain a final cell density of 2000 cells/well.
(3.1) Preparation of test compound solutions: a suitable amount of test compound (please see the following table for sample weight) was weighed, and dissolved by adding a suitable amount of DMSO. The resultant mixture was mixed homogeneously, and diluted gradiently with DMSO to prepare a series of solutions of different concentrations, for later usage.
Solvent control: 0.5% DMSO.
(§2) Cell control: cell seeding only, with no addition of compound.
(§3) Blank control: medium, for zero setting in an instrument.
(3.3) The 96-well plate was cultured in a 37° C., 5% CO2 incubator for 96 h.
(1) 80 μL medium was removed from each well in the 96-well plate, and the plate was placed at room temperature for 30 min.
(2) 60 μL CellTiter-Glo® reagent was added to each test well in the 96-well plate.
(3) The 96-well plate was shaken for 2 min in dark to mix the mixture homogeneously in a microplate shaker, so as to lyse the cells.
(4) The 96-well plate was incubated in dark at room temperature for 10 min, to keep the light signal value stable.
(5) The results were read by Microplate Reader in luminescence mode.
IC50 calculation: cell inhibition rate (%)=(ODmaximal value−ODcompound)/(ODmaximal value−ODblank value)×100, wherein Graph prisim software is used in curve fitting to get IC50 value.
ODmaximal value: cell control with the addition of solvent and no compound, ODblank value: medium blank control.

Karpas-299 = experiment: In vitro cell activity, Karpas-299, MTS detection; format: cell-based; conditions: Homo sapiens, read-out: cell-inhibiting activity IC50, Karpas-299
Experimental: (§4) Cells were digested with pancreatin. After centrifugation at 1000 rpm for 4 min, the supernatant was removed. […] The cell suspension (90 μL) was seeded to a 96-well plate to obtain a final cell density of 3000 cells/well; and then cultured in a 5% CO2, 37° C. incubator for 24 h.
(§5) Preparation of test compound solutions: a suitable amount of test compound (please see the following table for sample weight) was weighed, and diluted gradiently with DMSO to prepare a series of stock solutions of different concentrations (1000×test compound solution). Each of said stock solutions was further diluted by 100 folds with medium to obtain a 10×test compound solution.
(§6) Solvent control: 0.1% DMSO.
as §2, §3
(§7) (3.3) The 96-well plate was cultured in a 37° C., 5% CO2 incubator for 72h.
(§8) (1) The reagents in CellTiter 96®AQueous One Solution Cell Proliferation Assay (MTS) were placed at room temperature for 90 min.
(§9) (2) To each test well in the 96-well plate, 20 μL CellTiter 96® A Queous One Solution reagent was added.
(§10) (3) The 96-well plate was cultured in a 37° C., 5% CO2 incubator for 40 min.
(§11) (4) The results were read by Microplate Reader at 490 nm.
(§12) IC50 calculation: cell survival rate (%)=(ODsample value−ODblank value)/(ODmaximal value−ODblank value)×100, wherein Graph prisim software is used in curve fitting to get IC50 value.
(§13) ODmaximal value: cell control with the addition of solvent and no compound, ODblank value: blank control value.

NCI-H3122 = experiment: In vitro cell activity, NCI-H3122, MTS detection; format: cell-based; conditions: Homo sapiens, read-out: cell-inhibiting activity IC50, NCI-H3122
Experimental: as §4, §5, §6, §2, §3, §7, §8, §9, §10, §11, §12, §13

Pharmacokinetics in rat = format: in vivo; conditions: plasma, iv 2 mg/kg, po 5 mg/kg
Experimental: Experimental Example 6 Assay on Pharmacokinetics of the Compounds Provided in Examples of the Invention in Rat
Test compounds: Compound 4, lab-made, the chemical name and preparation method of which can be found in the preparation example.
Internal standard: Alectinib, lab-made (prepared by reference to the method in Patent CN102459172A).
0.1% Tween 80+2% HPC: HPC (hydroxypropyl cellulose) (20 g) was weighed, and was added slowly to purified water (1000 mL) under stirring; Tween 80 (1 mL) was then added, and the resultant mixture was stirred until a clear solution was obtained, i.e. a blank solvent of 0.1% Tween 80+2% HPC.
A suitable amount of test compound (please see the following table for sample weight) was weighed, and said prepared solvent was added. The resultant mixture was placed in a tissue grinder, and was dispersed homogeneously at a rotation speed of 1000 r/min to get a solution for intragastric administration. […]
Protein precipitation method: to 30 μL plasma, 200 μL internal standard (acetonitrile solution containing 50 ng/mL Alectinib) was added; the resultant mixture was vortexed at 1000 r/min for 10 min, and then centrifuged at 4000 r/min for 20 min; to 100 μL supernatant, 100 μL water was added; the resultant mixture was mixed homogeneously under vortexing and analyzed by LC-MS/MS.

ALK kinase [2] = molecular target: T1, ALK kinase; experiment: In vitro ALK kinase inhibitory activity by Caliper Mobility Shift assay; format: biochemical; conditions: Experimental Example 2, 28° C., 1 h, read-out: ALK enzyme-inhibiting activity IC50
Excerpt: Experimental method: Measurement of ALK kinase inhibitory activity by Caliper Mobility Shift assay.
1. Preparation of 1-Fold Kinase Buffer
2. Preparation of Stop Solution
3. Preparation of 5-Fold Test Compound Solutions:
Preparation of a DMSO stock solution of test compound: a suitable amount of compound (please see the following table for sample weight) was weighed, and dissolved by adding a suitable amount of DMSO. The resultant mixture was mixed homogeneously, for later usage.
Said DMSO stock solution of test compound was diluted with DMSO to a solution at a concentration of 50 μM, which was used as initial solution. Said initial solution was subjected to 4-fold gradient dilution with DMSO, and the solution at each concentration was 10-fold diluted with 1-fold kinase buffer to prepare a 5-fold test compound solution.
4. Preparation of Other Reagents:
2.5×ALK kinase solution and 2.5× polypeptide solution were prepared by using the 1-fold kinase buffer, for later usage.
1) 5 μL 5-fold test compound solution and 10 μL 2.5-fold kinase solution were added to the corresponding wells in a 384-well plate, and incubated at room temperature for 10 min.
The enzymatic reaction was started, and the incubation was performed at 28° C. for 1 h.
To the corresponding wells, 25 μL stop solution was added to stop the reaction. Data was read by Caliper device, and the inhibition rate was calculated by the data,
Inhibition rate (%)=(maximal value-sample value)/(maximal value-minimal value)×100, wherein XLFIT software was used in curve fitting to get IC50 value.
Maximal value: positive control without addition of test compound; minimal value: negative control without addition of enzyme.

T1 sequence (Q9UM73 19-1620): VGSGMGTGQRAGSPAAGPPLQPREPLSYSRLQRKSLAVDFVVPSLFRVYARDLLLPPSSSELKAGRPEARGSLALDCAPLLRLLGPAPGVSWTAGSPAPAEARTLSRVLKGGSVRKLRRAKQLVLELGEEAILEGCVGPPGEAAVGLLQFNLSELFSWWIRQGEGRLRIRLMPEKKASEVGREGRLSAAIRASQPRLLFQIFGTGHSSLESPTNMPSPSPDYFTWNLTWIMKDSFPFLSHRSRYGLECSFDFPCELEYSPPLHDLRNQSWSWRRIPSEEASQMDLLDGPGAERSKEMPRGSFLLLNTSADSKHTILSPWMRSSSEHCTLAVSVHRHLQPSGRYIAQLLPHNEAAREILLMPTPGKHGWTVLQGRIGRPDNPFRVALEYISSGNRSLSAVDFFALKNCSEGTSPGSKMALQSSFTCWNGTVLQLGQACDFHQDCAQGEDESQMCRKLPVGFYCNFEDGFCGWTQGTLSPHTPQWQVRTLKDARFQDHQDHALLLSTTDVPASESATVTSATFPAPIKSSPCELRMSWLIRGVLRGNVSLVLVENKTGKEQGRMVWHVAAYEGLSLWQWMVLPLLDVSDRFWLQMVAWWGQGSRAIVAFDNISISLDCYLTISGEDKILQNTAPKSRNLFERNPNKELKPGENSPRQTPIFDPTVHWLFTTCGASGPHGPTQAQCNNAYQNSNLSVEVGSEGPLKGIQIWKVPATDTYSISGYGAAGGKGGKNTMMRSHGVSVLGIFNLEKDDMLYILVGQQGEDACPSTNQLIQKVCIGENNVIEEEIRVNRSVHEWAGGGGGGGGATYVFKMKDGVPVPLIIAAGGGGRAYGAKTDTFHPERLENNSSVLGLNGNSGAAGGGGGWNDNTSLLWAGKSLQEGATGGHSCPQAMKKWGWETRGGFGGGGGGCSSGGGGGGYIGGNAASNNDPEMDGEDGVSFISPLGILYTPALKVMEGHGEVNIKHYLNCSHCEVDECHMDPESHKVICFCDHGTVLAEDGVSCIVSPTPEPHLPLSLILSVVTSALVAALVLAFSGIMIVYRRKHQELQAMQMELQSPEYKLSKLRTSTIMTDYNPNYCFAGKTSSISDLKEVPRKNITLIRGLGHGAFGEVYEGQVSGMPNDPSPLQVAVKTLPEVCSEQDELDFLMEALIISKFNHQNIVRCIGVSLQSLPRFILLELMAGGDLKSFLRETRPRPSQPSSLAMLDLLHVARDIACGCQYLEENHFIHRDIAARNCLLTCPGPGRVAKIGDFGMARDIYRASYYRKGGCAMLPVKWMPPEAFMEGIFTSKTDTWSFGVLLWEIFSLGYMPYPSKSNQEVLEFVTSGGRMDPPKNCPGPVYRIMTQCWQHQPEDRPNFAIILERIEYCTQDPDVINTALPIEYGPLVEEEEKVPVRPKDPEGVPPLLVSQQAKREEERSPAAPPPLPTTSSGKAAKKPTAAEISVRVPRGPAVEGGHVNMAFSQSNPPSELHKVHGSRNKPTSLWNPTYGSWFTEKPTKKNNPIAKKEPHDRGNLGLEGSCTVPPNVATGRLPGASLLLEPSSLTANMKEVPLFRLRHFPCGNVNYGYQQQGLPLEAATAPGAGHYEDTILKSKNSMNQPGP

SMILES | IC50 (ALK kinase [1]) [nM] | IC50 (NCI-H2228; NCI-H2228, 96 h, CTG) [nM] | IC50 (Karpas-299; KARPAS-299, 72 h, MTS) [nM] | IC50 (NCI-H3122; NCI-H3122, 72 h, MTS) [nM] | bioavailability (Pharmacokinetics in rat) [%] | IC50 (ALK kinase [2]) [nM] | IC50 (NCI-H2228; NCI-H2228, 96 h) [nM] | IC50 (Karpas-299; KARPAS-299, 72 h) [nM] | IC50 (NCI-H3122; NCI-H3122, 72 h) [nM]
Cc1cc(Nc2ncc(Cl)c(Nc3ccccc3S(=O)(=O)C(C)C)n2)c2c(c1C1CCNC1)OCCO2 (stereo not drawn) [Compound 5, 5-chloro-N^4-(2-(isopropylsulfonyl)phenyl)-N^2-(7-methyl-8-(pyrrolidin-3-yl)-2,3-dihydrobenzo[b][1,4]dioxin-5-yl)pyrimidine-2,4-diamine] |  | 7.41 | 5.36 | 25.1 |  | 0.36 |  |  | 
Cc1cc(Nc2ncc(Cl)c(Nc3ccccc3S(=O)(=O)C(C)C)n2)c2c(c1C1CNC1)OCCO2 [Compound 6, N^2-(8-(azetidin-3-yl)-7-methyl-2,3-dihydrobenzo[b][1,4]dioxin-5-yl)-5-chloro-N^4-(2-(isopropylsulfonyl)phenyl)pyrimidine-2,4-diamine] |  |  | 9.92 | 61.7 |  | 0.45 |  |  | 
Cc1cc(Nc2ncc(Cl)c(Nc3ccccc3S(=O)(=O)N(C)C)n2)c2c(c1C1CCNCC1)OCCO2 [Compound 3, 2-((5-chloro-2-((7-methyl-8-(piperidin-4-yl)-2,3-dihydrobenzo[b][1,4]dioxin-5-yl)amino)pyrimidin-4-yl)amino)-N,N-dimethylbenzenesulfonamide] | 0.6 | 1.72 | 0.164 | 43.2 |  |  |  |  | 
Cc1cc(Nc2ncc(Cl)c(Nc3ccccc3S(=O)(=O)C(C)C)n2)c2c(c1C1=CCNCC1)CCCO2 [Compound 8, 5-chloro-N^4-(2-(isopropylsulfonyl)phenyl)-N^2-(6-methyl-5-(1,2,3,6-tetrahydropyridine-4-yl)chroman-8-yl)pyrimidine-2,4-diamine] |  |  | 5.18 | 16.1 |  | 0.54 |  |  | 
Cc1cc(Nc2ncc(Cl)c(Nc3ccccc3S(=O)(=O)C(C)C)n2)c(OC(C)C)cc1C1CCNCC1 [Ceritinib, reference compound] |  |  |  |  |  |  | 48.1 | 30 | 138

Further lines, with some results ahead:

IC50 (ALK kinase [1]) [nM] | IC50 (NCI-H2228; NCI-H2228, 96 h, CTG) [nM] | IC50 (Karpas-299; KARPAS-299, 72 h, MTS) [nM] | IC50 (NCI-H3122; NCI-H3122, 72 h, MTS) [nM] | bioavailability (Pharmacokinetics in rat) [%] | IC50 (ALK kinase [2]) [nM] | SMILES | IC50 (NCI-H2228; NCI-H2228, 96 h) [nM] | IC50 (Karpas-299; KARPAS-299, 72 h) [nM] | IC50 (NCI-H3122; NCI-H3122, 72 h) [nM]
0.9 | 15.1 | 0.71 | 130 | 30 to 50 |  | Cc1cc(Nc2ncc(Cl)c(Nc3ccccc3S(=O)(=O)C(C)C)n2)c2c(c1C1CCNCC1)OCCO2 [Compound 4, 5-chloro-N^4-(2-(isopropylsulfonyl)phenyl)-N^2-(7-methyl-8-(piperidin-4-yl)-2,3-dihydrobenzo[b][1,4]dioxin-5-yl)pyrimidine-2,4-diamine] |  |  | 
1.7 | 5.47 | 7.66 | 4.18 |  |  | Cc1cc(Nc2ncc(Cl)c(Nc3ccccc3S(=O)(=O)N(C)C)n2)c2c(c1C1CCNCC1)OCO2 [Compound 2, 2-((5-chloro-2-((6-methyl-7-(piperidin-4-yl)benzol[d][1,3]dioxol-4-yl)amino)pyrimidin-4-yl)amino)-N,N-dimethylbenzenesulfonamide] |  |  | 
0.2 | 3.21 | 0.7 | 10.9 |  |  | Cc1cc(Nc2ncc(Cl)c(Nc3ccccc3S(=O)(=O)C(C)C)n2)c2c(c1C1CCNCC1)OCO2 [Compound 1, 5-chloro-N^4-(2-(isopropylsulfonyl)phenyl)-N^2-(6-methyl-7-(piperidin-4-yl)benzo[d][1,3]dioxol-4-yl)pyrimidine-2,4-diamine] |  |  | 
